The results in this text go back to US8114408B2 (priority 2007, dated 2012).

The assay concerns antibodies to pathogenic Newcastle disease virus. The assay is classed as binding, chicken.

“And” between values parts separate entries of the source, which are not always exact repeats. Equal entries are not always repeated.

For 3 (RRQRRF) [compound 3], the “number of positive chickens/number of tested chickens” value is 1/5(0.81) and 0/5(0.70) and 4/4(2.45).
